Reference: US6797721B2, “Phorboxazole derivatives for treating cancer” (Parker Hughes Institute, priority 1999, dated 2004)
pIC50: −log10 of the molar value.

Columns and labels:
[1] = test system: BT-20 breast cancer cells; assay: In vitro adhesion assay to ECM proteins, BT-20; type: cell-based, human; conditions: laminin-, fibronectin-, and collagen-coated plates, 0.1 μM to 1 μM for 24 hours
Description: (§1) Human brain tumor cell lines U-373 MG and breast cancer cell lines BT-20 and MDA-MB-231 were obtained from American Type Culture Collection (ATCC, Rockville, Md.) and maintained in liquid culture using DMEM supplemented with 10% fetal bovine serum and antibiotics. Fibroblast conditioned medium was used as a source of chemoattractant in vitro invasion assays. Conditioned medium was prepared as described in the literature (Albini et.al., 1987, Cancer Res., 47:3239-3245).
(§2) In vitro adhesion assays were performed to (a) study the baseline adhesive properties of various breast cancer and glioblastoma cell lines and (b) evaluate the effects of phorboxazole A derivatives on the adhesive properties of breast cancer and glioblastoma cells. The plates for the adhesion assays were precoated with the extracellular matrix proteins laminin, fibronectin, or type IV collagen (each at a final concentration of 1 μg/ml in PBS) overnight at 4° C. and dried. On the day of the experiment, the wells were rehydrated and blocked with 10% bovine serum albumin in PBS for 1 hour at room temperature and used for the adhesion assays, as described below.
(§3) The effects of synthetic phorboxazole A and specific derivatives on adhesion of breast cancer and glioblastoma cells was studied. Exponentially growing cells in DMEM were incubated with phorboxazole compounds or genistein as a control at concentrations ranging from 0.1 μM to 1 μM for 24 hours in a humidified 5% CO2 atmosphere. DMSO (0.1%) was included as a vehicle control. After treatment, cells were detached from the flasks with 0.05% trypsin (Life Technologies) resuspended in DMEM, incubated at 37° C. for 2 hours to allow them to recover from the trypsinization stress and examined for their ability to adhere to plates precoated with ECM proteins.
(§4) In adhesion assays, cells were centrifuged, washed twice with serum-free DMEM, counted and resuspended in serum-free DMEM to a final concentration of 2.5×10^5 cells/ml. […] The adherent fraction was quantitated using MTT (3-[4,5-dimethylthiazol-2-yl]-2,5-diphenyltetrazolium bromide) assays. […] The absorbance of each well was measured in a microplate reader (Labsystems) at 540 nm and a reference wavelength of 690 nm.
(§5) To translate the OD540 values into the number of cells in each well, the OD540 values were compared to those on standard OD540-versus-cell number curves generated for each cell line. The adherent fractions of cells treated with phorboxazole A derivatives were compared to those of DMSO-treated control cells and the percent inhibition of adhesion was determined using the formula: [formula]
(§6) Each treatment condition was evaluated in duplicate in 3 independent experiments. The IC50 values were calculated by non-linear regression analysis. […]

[2] = test system: BT-20 human breast cancer cells; assay: MTT cytotoxicity assay, BT-20; type: cell-based; conditions: BT-20 (breast cancer), 24-36 hours, read-out: IC50 [MTT]
Description: The cytotoxicity assay of synthetic Phorboxazole A and various derivative compounds against human tumor cells was performed using the MTT (3-[4,5-dimethylthiazol-2-yl]-2,5-diphenyl tetrazolium bromide) assay (Boehringer Mannheim Corp., Indianapolis, Ind.). Briefly, exponentially growing brain tumor cells were seeded into a 96-well plate at a density of 2.5×10^4 cells/well and incubated for 36 hours at 37° C. prior to drug exposure. On the day of treatment, culture medium was carefully aspirated from the wells and replaced with fresh medium containing the various phorboxazole A derivative compounds as well as the tyrosine kinase inhibitory isoflavone genistein (GEN) at concentrations ranging from 0.1 to 250 μM. Triplicate wells were used for each treatment.
Human glioblastoma cells U373 (brain cancer), human B-lineage acute lymphoblastic leukemia cells NALM-6, and human breast cancer cells BT-20 were obtained from American Type Culture Collection (Rockville, Md.) and maintained as a continuous cell line in Dulbecco's modified Eagles's medium supplemented with 10% fetal bovine serum and antibiotics.
The cells were incubated with the various compounds for 24-36 hours at 37° C. in a humidified 5% CO2 atmosphere. To each well, 10 μl of MTT (0.5 mg/ml final concentration) was added and the plates were incubated at 37° C. for 4 hours to allow MTT to form formazan crystals by reacting with metabolically active cells. The fonnazan crystals were solubilized overnight at 37° C. in a solution containing 10% SDS in 0.01 M HCl. The absorbance of each well was measured in a microplate reader (Labsystems) at 540 nm and a reference wavelength of 690 nm. To translate the OD540 values into the number of live cells in each well, the OD540 values were compared to those on standard OD540-versus-cell number curves generated for each cell line. The percent survival was calculated using the formula: [formula]
The IC50 values were calculated by non-linear regression analysis.

[3] = test system: NALM-6 B-lineage ALL cells; assay: Clonogenic assay, NALM-6; type: cell-based, human; conditions: 7 days
Description: (§7) The growth-inhibiting activity of the synthetic Phorboxazole A and the synthesized derivatives was tested in clonogenic assays. Cancer cells were treated with 1 nM, 10 nM, and 100 nM doses of synthetic Phorboxazole A or derivatives of phorboxazole A. Treated cells included U373 human glioblastoma cells, NALM-6, human B-lineage acute lymphoblastic leukemia cells, and BT-20 human breast cancer cells. The cancer cells were resuspended in clonogenic medium consisting of alpha-MEM supplemented with 0.9% methylcellulose, 30% fetal bovine serum, and 50 μM 2-mercaptoethanol. Cells were plated in duplicate Petri dishes at 100,000 cells/mL/dish and cultured in a humidified 5% CO2 incubator for 7 days. Cancer cell colonies were enumerated on a grid using an inverted phase microscope of high optical resolution. Results were expressed as % inhibition of clonogenic cells at a particular concentration of the test agent using the formula:
(§8) % Inhibition=(1−Mean # of colonies [Test]/Mean # of colonies [Control]×100.

[4] = test system: MDA-MB-231 breast cancer cells; assay: In vitro adhesion assay to ECM proteins, MDA-MB-231; type: cell-based, human; conditions: laminin-, fibronectin-, and collagen-coated plates, 0.1 μM to 1 μM for 24 hours
Description: as §1, §2, §3, §4, §5, §6

[5] = test system: BT-20 human breast cancer cells; assay: Clonogenic assay, BT-20; type: cell-based; conditions: 7 days
Description: as §7, §8

[6] = Homo sapiens, 168 h, 1 nM, read-out: Inhibition of clonogenic growth
[7] = Homo sapiens, 168 h, 10 nM, read-out: Inhibition of clonogenic growth
[8] = Homo sapiens, 168 h, 100 nM, read-out: Inhibition of clonogenic growth

C=C1C[C@@H]2C[C@@H]3C[C@@H](O)C[C@@H](O3)c3coc(n3)/C=C/C[C@H]3O[C@@H](/C(C)=C/c4coc(C[C@]5(O)C[C@H](OC)C[C@H]([C@H](O)/C=C(C)/C=C/[C@@H](C/C=C/Br)OC)O5)n4)[C@H](C)[C@@H](OC(=O)/C=C\C[C@@H](C1)O2)[C@H]3C [Compound 1, Phorboxazole A]
Inhibition of cell adhesion [1]: active | pIC50 [2]: 8.47 | Mean Number Colonies/10^4 cells ([3]; 1 nM): 270 | Mean Number Colonies/10^4 cells ([3]; 10 nM): 0 | Mean Number Colonies/10^4 cells ([3]; 100 nM): 0 | inhibition at 0.001 µM [3, 6]: 86.8% | inhibition at 0.01 µM [3, 7]: > 99.9% | inhibition at 0.1 µM [3, 8]: > 99.9% | Inhibition of cell adhesion [4]: active | Mean Number Colonies/10^4 cells ([5]; 1 nM): 1070 | Mean Number Colonies/10^4 cells ([5]; 10 nM): 0 | Mean Number Colonies/10^4 cells ([5]; 100 nM): 0 | inhibition at 0.001 µM [5, 6]: 29.8% | inhibition at 0.01 µM [5, 7]: > 99.9% | inhibition at 0.1 µM [5, 8]: > 99.9%
